From PubChem BioAssay (NCI)
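Compound exposure: 48 hours, 5 concentrations, 96-well plates. At the GI50, growth is halved. The concentration for full growth arrest is given as TGI.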

Tests used:
Test in all cases: NCI tumour cell line growth inhibition, 48 h
MCF7 breast = system: MCF7 breast
SNB-19 CNS = system: SNB-19 CNS
SK-OV-3 ovarian = system: SK-OV-3 ovarian
U251 CNS = system: U251 CNS
HL-60(TB) leukemia = system: HL-60(TB) leukemia
HT29 colon = system: HT29 colon
LOX IMVI melanoma = system: LOX IMVI melanoma
SF-539 CNS = system: SF-539 CNS
OVCAR-5 ovarian = system: OVCAR-5 ovarian
OVCAR-3 ovarian = system: OVCAR-3 ovarian

SMILES	TGI (MCF7 breast)	TGI (SNB-19 CNS)	TGI (SK-OV-3 ovarian)	TGI (U251 CNS)	TGI (HL-60(TB) leukemia)	TGI (HT29 colon)	TGI (LOX IMVI melanoma)	TGI (SF-539 CNS)	TGI (OVCAR-5 ovarian)	TGI (OVCAR-3 ovarian)	GI50 (MCF7 breast)	GI50 (SNB-19 CNS)	GI50 (SK-OV-3 ovarian)	GI50 (U251 CNS)	GI50 (HL-60(TB) leukemia)	GI50 (HT29 colon)	GI50 (LOX IMVI melanoma)	GI50 (SF-539 CNS)	GI50 (OVCAR-5 ovarian)	GI50 (OVCAR-3 ovarian)
CSCCCNC(=O)[C@H](CSC)NC(=O)c1csc(CCNC(=O)[C@@H](NSc2ccccc2[N+](=O)[O-])C(C)O)n1 (stereo not given in full)	> 100 µM	> 100 µM	> 100 µM	> 100 µM	> 100 µM	> 100 µM	> 100 µM	> 100 µM	> 100 µM	> 100 µM										
COC1CC(OC2C(C)OC(OC3C(C)OC(OC4C(C)OC(O[C@H]5CC[C@@]6(C)C(=CC[C@]7(O)[C@@H]6C[C@@H](O)[C@@]6(C)[C@]7(O)CC[C@@]6(O)C(C)=O)C5)CC4OC)CC3OC)CC2OC)OC(C)C1O (stereo not given in full)	> 12.5 µM	> 12.5 µM	> 12.5 µM	> 12.5 µM	> 12.5 µM	> 12.5 µM	> 12.5 µM	> 12.5 µM	> 12.5 µM	> 12.5 µM										
Cc1ccc(NC(=O)CC(=O)n2nc(C)c(N=Nc3cccc(C)c3)c2C)cc1	> 100 µM	> 100 µM	> 100 µM	> 100 µM	> 100 µM	> 100 µM	> 100 µM	> 100 µM	> 100 µM	> 100 µM										
C[C@H](CCC(=O)NCC(=O)O)[C@H]1CC[C@H]2[C@@H]3[C@H](O)C[C@@H]4C[C@H](O)CC[C@]4(C)[C@H]3CC[C@]12C	> 100 µM	> 100 µM	> 100 µM	> 100 µM	> 100 µM	> 100 µM	> 100 µM	> 100 µM	> 100 µM	> 100 µM										
C(=C/c1nc2ccccc2o1)/c1ccc2c(c1)OCO2	> 79.8 µM	38.6 µM	53.1 µM	42.1 µM	> 96.5 µM	> 81.8 µM	> 47.8 µM	34.6 µM	> 100 µM	29.1 µM										
CCOC(=O)C(C)N1C(=O)c2ccccc2S1(=O)=O (stereo not given)	> 100 µM	> 100 µM	> 100 µM	> 100 µM	> 100 µM	> 100 µM	> 100 µM	> 100 µM	> 100 µM	> 100 µM										
Cc1ccc2c(c1C)C(=O)/C(=C/c1cccc(C)c1C(=O)O)C2	> 65.2 µM	> 100 µM	> 100 µM	> 100 µM	> 100 µM	> 100 µM	> 90.7 µM	> 100 µM	> 100 µM	> 100 µM										
CC(=O)c1sc2[n+](c1C)C(=O)/C(=C\c1ccccc1Cl)S2	29.8 µM	47.6 µM	47.7 µM	30.5 µM	39 µM	39.2 µM	35.8 µM	44.7 µM	50.1 µM	35.8 µM										
Cc1cc(=O)oc2c(CNC(CC(C)C)C(=O)O)c(O)ccc12 (stereo not given)	> 100 µM	> 100 µM	> 100 µM	> 100 µM	> 100 µM	> 100 µM	> 100 µM	> 100 µM	> 100 µM	> 100 µM										
COc1cc2c3c(cc(Cl)nc3c1OC)C(O)(CC(=O)c1ccccc1)C(=O)N2 (stereo not given)	4.02 µM	31.8 µM	32.2 µM	32.7 µM	3.68 µM	44.7 µM	20.6 µM	5.27 µM	35.3 µM	30.2 µM										
COc1cc(/C=N/NC2=NCCN2)ccc1O	> 100 µM	> 100 µM	> 100 µM	> 100 µM	> 100 µM	> 100 µM	> 100 µM	> 100 µM	> 100 µM	> 100 µM										
COc1ccc(C2=NC(c3ccc(Cl)cc3)C(c3ccc(Cl)cc3)N2C(=O)N2CCNC(=O)C2)c(OC(C)C)c1 (stereo not given)	4.16 µM	4.91 µM	4.31 µM	3.57 µM	> 10 µM	> 10 µM	3.33 µM	4.01 µM	5.54 µM	3.13 µM	2.06 µM	2.08 µM	2.27 µM	1.84 µM	3.62 µM	3.27 µM	1.78 µM	2.02 µM	2.23 µM	1.71 µM
N#Cc1nc(/C=C/c2cccnc2)oc1N	> 100 µM	> 100 µM	> 100 µM	> 100 µM	> 100 µM	> 100 µM	> 100 µM	> 100 µM	> 100 µM	> 100 µM										
C=C(C)[C@@H]1CC[C@]2(C(=O)NC(C)=O)CC[C@]3(C)[C@H](CC[C@@H]4[C@@]5(C)CCCNC(C)(C)[C@@H]5CC[C@]43C)[C@@H]12	3 µM	2.96 µM	3.22 µM	3.26 µM	3.2 µM	3.06 µM	2.48 µM	2.84 µM	2.88 µM	3.04 µM	1.41 µM	1.6 µM	1.63 µM	1.68 µM	1.35 µM	1.21 µM	1.18 µM	1.51 µM	1.53 µM	1.59 µM
CCCCCCCCCCCCOP(=O)(O)OP(=O)(O)OCC1OC(n2cc(C)c(=O)[nH]c2=O)CC1O (stereo not given)	> 100 µM	> 100 µM	> 100 µM	> 100 µM	> 100 µM	> 100 µM	> 100 µM	> 100 µM	> 100 µM	> 100 µM										
CC(C)(C)C1=C(Br)C(OC(=O)C(F)(F)F)(C(C)(C)C)OP1(=O)c1ccccc1 (stereo not given)	> 100 µM	> 100 µM	> 100 µM	> 100 µM	> 100 µM	> 100 µM	> 100 µM	> 100 µM	> 100 µM	> 100 µM										
CN(C)CCNC(=O)c1c(O)ccc2c1c1c(n2CCc2ccccc2)C(=O)c2ccccc2C1=O	12.1 µM	23.8 µM	31.5 µM	13.9 µM	18.1 µM	19.3 µM	6.93 µM	11.1 µM	29.5 µM	28.1 µM										
O=P(O)(O)CN1CCNCCN(CP(=O)(O)O)CC1	> 100 µM	> 100 µM	> 100 µM	> 100 µM	18.2 µM	> 100 µM	> 100 µM	> 100 µM	> 100 µM	> 100 µM										

SMILES	TGI (MCF7 breast)	TGI (SNB-19 CNS)	TGI (SK-OV-3 ovarian)	TGI (U251 CNS)	TGI (HL-60(TB) leukemia)	TGI (HT29 colon)	TGI (LOX IMVI melanoma)	TGI (SF-539 CNS)	TGI (OVCAR-5 ovarian)	TGI (OVCAR-3 ovarian)	GI50 (MCF7 breast)	GI50 (SNB-19 CNS)	GI50 (SK-OV-3 ovarian)	GI50 (U251 CNS)	GI50 (HL-60(TB) leukemia)	GI50 (HT29 colon)	GI50 (LOX IMVI melanoma)	GI50 (SF-539 CNS)	GI50 (OVCAR-5 ovarian)	GI50 (OVCAR-3 ovarian)
O=C(Nc1ccc(Cl)cc1)c1cc(S(=O)(=O)Nc2n[nH]c(=O)n2-c2ccccc2)c(S)cc1Cl	> 100 µM	> 100 µM	> 100 µM	> 100 µM	> 100 µM	> 100 µM	> 100 µM	> 100 µM	> 100 µM	> 100 µM										
CCOC(=O)C1=C(C)N(Cc2ccccc2)C2(O)C=CC(=O)C3=C(O)c4ccccc4C(=O)C312 (stereo not given)	3.44 µM	88.7 µM	> 100 µM	38.5 µM	42.1 µM	> 100 µM	36.6 µM	32.6 µM	31.7 µM	20.2 µM										
CC/C(N)=N\NC(=O)OC(C)(C)C	> 100 µM	> 100 µM	> 100 µM	> 100 µM	> 100 µM	> 100 µM	> 100 µM	> 100 µM	> 100 µM	> 100 µM										
Cc1ccc(/C=C2\N=C(N3CCCC(CO)C3)NC2=O)cc1 (stereo not given)	> 100 µM	> 100 µM	> 100 µM	> 100 µM	> 100 µM	> 100 µM	> 100 µM	> 100 µM	> 100 µM	> 100 µM										
CC(NC(=O)C(Cc1ccc(OC(=O)c2ccccc2)cc1)NC(=O)OC(C)(C)C)C(=O)NCC(=O)NC(Cc1ccccc1)C(=O)NN (stereo not given)	> 100 µM	> 100 µM	> 100 µM	> 100 µM	41.5 µM	> 100 µM	45 µM	> 100 µM	> 100 µM	> 100 µM										
COc1ccc(-c2n/c(=C\c3c(O)[nH]c4ccccc34)cc3c2=Nc2ccccc2-3)cc1	2.75 µM	3.79 µM	35.6 µM	2.76 µM	4.08 µM	2.29 µM	2.88 µM	3.31 µM	20.4 µM	2.28 µM	1.28 µM	1.63 µM	9.19 µM	1.45 µM	1.9 µM	1.1 µM	1.55 µM	1.86 µM	5.63 µM	1.01 µM
O=C(NCCCCCN1CCC2(CCCCC2)CC1)C(C1CCCCC1)C1CCCCC1	5.37 µM	12.5 µM	15.1 µM	8.53 µM	3.62 µM	4.62 µM	7.02 µM	3.43 µM	17.7 µM	8.97 µM										
Cc1csc(-n2c(C)nc3cc(Cl)ccc3c2=O)n1	> 100 µM	> 100 µM	> 100 µM	> 100 µM	> 100 µM	> 100 µM	> 100 µM	> 100 µM	> 100 µM	> 100 µM										
CC1(C)CC(=O)C2=C(C1)OC1(CC2c2ccc(Cl)cc2)CC(c2ccc(Cl)cc2)C2=C(CC(C)(C)CC2=O)O1 (stereo not given)	> 100 µM	54.6 µM	29.4 µM	> 57.6 µM	24.1 µM	> 100 µM	64.2 µM	> 51.3 µM	> 79.1 µM	23.5 µM										
C=CC[C@H](N=C(SC)SC)C(=O)N1C(=O)N(C)[C@@H](C)[C@H]1c1ccccc1	> 100 µM	> 100 µM	> 100 µM	> 100 µM	> 100 µM	> 100 µM	> 100 µM	> 100 µM	> 100 µM	> 100 µM										
CC(C)NC(=O)OCc1c(COC(=O)NC(C)C)c(-c2cc[n+](COC(=O)C3CCCCC3)cc2)n2c1CCC2	> 100 µM	> 100 µM	> 100 µM	> 100 µM	> 100 µM	> 100 µM	> 100 µM	> 100 µM	> 100 µM	> 100 µM										
N#Cc1nc(-c2cccc(-c3nc(C#N)c(N)o3)n2)oc1N	> 100 µM	> 100 µM	> 100 µM	> 100 µM	> 100 µM	> 100 µM	> 100 µM	> 100 µM	> 100 µM	> 100 µM										
CCOC(=O)C(C/C=C/CO)N(C)C(=O)OC(C)(C)C (stereo not given)	> 100 µM	> 100 µM	> 100 µM	> 100 µM	> 100 µM	> 100 µM	> 100 µM	> 100 µM	> 100 µM	> 100 µM										
CCNC(=S)N/N=C(\C)c1cccc(C)n1	> 100 µM	> 100 µM	> 100 µM	83.2 µM	53.6 µM	> 100 µM	> 100 µM	45.1 µM	> 100 µM	> 100 µM										
CCOC(=O)CCC(NC(=O)c1ccc(Nc2nc3ccccc3nc2C(=O)OCC)cc1)C(=O)OCC (stereo not given)	> 79 µM	14 µM	8.01 µM	9.66 µM	> 100 µM	> 89.7 µM	> 41.5 µM	5.62 µM	> 56.4 µM	4.73 µM										
O=c1cc(N2CCCC2)[nH]c(=O)n1-c1ccc(Cl)cc1	> 100 µM	> 100 µM	> 100 µM	> 100 µM	> 100 µM	> 100 µM	> 100 µM	> 100 µM	> 100 µM	> 100 µM										
CC[C@@]1(O)C(=O)OCc2c1cc1n(c2=O)Cc2c-1nc1ccccc1c2/C=N\NC(=O)C(N)Cc1c[nH]c2ccccc12 (stereo not given in full)	> 55.7 µM	1.74 µM	> 84 µM	5.16 µM	12.1 µM	> 100 µM	3.27 µM	0.584 µM	> 87 µM	> 54.9 µM										
CCOC(=O)c1cc(Br)c(-c2cc(C)co2)[nH]1	> 100 µM	> 100 µM	> 100 µM	> 100 µM	> 100 µM	> 100 µM	> 100 µM	> 100 µM	> 100 µM	> 100 µM										
